Measured values: the supplement of paper PMC11451515

How the values were obtained:
Settings in all cases: 48 h
[1] = system: SEM cells; assay: AUC of viability dose-response curve (% viability x log10 dose units); higher = less sensitive
Method in brief: (§1)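 Leukemia cells adapted to each medium (500 or 1000 cells/well, 1536-well plates) were exposed to library compounds in DMSO for 48 h at 37°C at 11 threefold doses, 47 μM to 0.79 nM. Luminescence by CellTiter-Glo One was normalised per plate to DMSO and cell-free wells, then fitted with a four-parameter log-logistic curve on log10 dose. Curves above full viability were scaled and quality-control failures removed before area under the curve was integrated by trapezoidal rule.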

[2] = system: P12-Ichikawa; assay: as above
Method in brief: as §1

[3] = system: NOMO1; assay: as above
Method in brief: as §1

[4] = system: SEM cells; assay: cell viability relative to DMSO control; higher = less cytotoxic
Method in brief: (§2)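 Viability was expressed as a per-plate percentage of DMSO wells, with cell-free wells as background. Leukemia cells (NOMO1 or SEM at 500 cells/well, P12-Ichikawa at 1000 cells/well) were adapted for at least four passages in each medium and seeded in 1536-well plates (5 μl). Library compounds in DMSO were pin-dosed over an 11-point threefold series from 47 μM to 0.79 nM, and CellTiter-Glo One luminescence was read after 48 h at 37°C.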

[5] = system: P12-Ichikawa; assay: as above
Method in brief: as §2

[6] = system: NOMO1; assay: as above
Method in brief: as §2

OC(=O)\C1=C\N(C2=CC=C(F)C=C2)C3=C(C=C(F)C(=C3)N4CCNCC4)C1=O
AUC of viability dose-response curve
Settings | [1] | [2] | [3]
HPLM + 10% dialyzed FBS | 446 | 457 | 447
RPMI 5 mM glucose + 10% FBS | 476 | 464 | 475
RPMI 5 mM glucose + 10% dialyzed FBS | 448 | 452 | 451

cell viability [%]
Settings | [4] | [5] | [6]
HPLM + 10% dialyzed FBS, 0.000781 µM | 89.5 | 121 | 113
HPLM + 10% dialyzed FBS, 0.00234 µM | 101 | 116 | 99.1
HPLM + 10% dialyzed FBS, 0.00702 µM | 100 | 112 | 116
HPLM + 10% dialyzed FBS, 0.0211 µM | 101 | 124 | 111
HPLM + 10% dialyzed FBS, 0.0632 µM | 105 | 124 | 129
HPLM + 10% dialyzed FBS, 0.19 µM | 90.7 | 117 | 122
HPLM + 10% dialyzed FBS, 0.569 µM | 82.4 | 114 | 114
HPLM + 10% dialyzed FBS, 1.71 µM | 89.4 | 115 | 105
HPLM + 10% dialyzed FBS, 5.12 µM | 86.4 | 108 | 101
HPLM + 10% dialyzed FBS, 15.4 µM | 90 | 103 | 95.6
HPLM + 10% dialyzed FBS, 46.1 µM | 93.9 | 91 | 98.6
RPMI 5 mM glucose + 10% FBS, 0.000781 µM | 101 | 126 | 103
RPMI 5 mM glucose + 10% FBS, 0.00234 µM | 108 | 118 | 99.1
RPMI 5 mM glucose + 10% FBS, 0.00702 µM | 120 | 118 | 110
RPMI 5 mM glucose + 10% FBS, 0.0211 µM | 92.1 | 120 | 101
RPMI 5 mM glucose + 10% FBS, 0.0632 µM | 114 | 117 | 104
RPMI 5 mM glucose + 10% FBS, 0.19 µM | 112 | 113 | 104
RPMI 5 mM glucose + 10% FBS, 0.569 µM | 97.2 | 112 | 117
RPMI 5 mM glucose + 10% FBS, 1.71 µM | 95.7 | 121 | 104
RPMI 5 mM glucose + 10% FBS, 5.12 µM | 110 | 117 | 115
RPMI 5 mM glucose + 10% FBS, 15.4 µM | 113 | 99.1 | 98.4
RPMI 5 mM glucose + 10% FBS, 46.1 µM | 103 | 92.1 | 94.6
RPMI 5 mM glucose + 10% dialyzed FBS, 0.000781 µM | 103 | 119 | 107
RPMI 5 mM glucose + 10% dialyzed FBS, 0.00234 µM | 103 | 111 | 106
RPMI 5 mM glucose + 10% dialyzed FBS, 0.00702 µM | 112 | 115 | 116
RPMI 5 mM glucose + 10% dialyzed FBS, 0.0211 µM | 125 | 115 | 105
RPMI 5 mM glucose + 10% dialyzed FBS, 0.0632 µM | 107 | 104 | 106
RPMI 5 mM glucose + 10% dialyzed FBS, 0.19 µM | 111 | 114 | 113
RPMI 5 mM glucose + 10% dialyzed FBS, 0.569 µM | 87.5 | 111 | 133
RPMI 5 mM glucose + 10% dialyzed FBS, 1.71 µM | 113 | 102 | 100
RPMI 5 mM glucose + 10% dialyzed FBS, 5.12 µM | 95.3 | 108 | 105
RPMI 5 mM glucose + 10% dialyzed FBS, 15.4 µM | 95.1 | 91.5 | 104
RPMI 5 mM glucose + 10% dialyzed FBS, 46.1 µM | 87.3 | 87.2 | 85.8

CCC[C@H](N[C@@H](C)C(=O)N1[C@H](C(=O)O)C[C@@H]2CCCC[C@@H]21)C(=O)OCC
AUC of viability dose-response curve
Settings | [1] | [2] | [3]
HPLM + 10% dialyzed FBS | 469 | 454 | 394
RPMI 5 mM glucose + 10% FBS | 469 | 433 | 439
RPMI 5 mM glucose + 10% dialyzed FBS | 466 | 438 | 399

cell viability [%]
Settings | [4] | [5] | [6]
HPLM + 10% dialyzed FBS, 0.000781 µM | 114 | 110 | 115
HPLM + 10% dialyzed FBS, 0.00234 µM | 111 | 108 | 124
HPLM + 10% dialyzed FBS, 0.00702 µM | 104 | 109 | 119
HPLM + 10% dialyzed FBS, 0.0211 µM | 114 | 113 | 119
HPLM + 10% dialyzed FBS, 0.0632 µM | 120 | 104 | 105
HPLM + 10% dialyzed FBS, 0.19 µM | 115 | 115 | 102
HPLM + 10% dialyzed FBS, 0.569 µM | 118 | 112 | 115
HPLM + 10% dialyzed FBS, 1.71 µM | 112 | 109 | 89.4
HPLM + 10% dialyzed FBS, 5.12 µM | 106 | 93.2 | 36
HPLM + 10% dialyzed FBS, 15.4 µM | 111 | 88.1 | 54.1
HPLM + 10% dialyzed FBS, 46.1 µM | 105 | 84.7 | 43.9
RPMI 5 mM glucose + 10% FBS, 0.000781 µM | 107 | 106 | 97.4
RPMI 5 mM glucose + 10% FBS, 0.00234 µM | 101 | 103 | 101
RPMI 5 mM glucose + 10% FBS, 0.00702 µM | 107 | 121 | 115
RPMI 5 mM glucose + 10% FBS, 0.0211 µM | 110 | 112 | 109
RPMI 5 mM glucose + 10% FBS, 0.0632 µM | 105 | 117 | 111
RPMI 5 mM glucose + 10% FBS, 0.19 µM | 116 | 108 | 106
RPMI 5 mM glucose + 10% FBS, 0.569 µM | 104 | 106 | 105
RPMI 5 mM glucose + 10% FBS, 1.71 µM | 110 | 97.9 | 95.3
RPMI 5 mM glucose + 10% FBS, 5.12 µM | 105 | 77.1 | 86.7
RPMI 5 mM glucose + 10% FBS, 15.4 µM | 98.6 | 79.5 | 78.9
RPMI 5 mM glucose + 10% FBS, 46.1 µM | 102 | 71.6 | 64.6
RPMI 5 mM glucose + 10% dialyzed FBS, 0.000781 µM | 110 | 124 | 114
RPMI 5 mM glucose + 10% dialyzed FBS, 0.00234 µM | 105 | 99 | 110
RPMI 5 mM glucose + 10% dialyzed FBS, 0.00702 µM | 108 | 113 | 118
RPMI 5 mM glucose + 10% dialyzed FBS, 0.0211 µM | 122 | 111 | 116
RPMI 5 mM glucose + 10% dialyzed FBS, 0.0632 µM | 111 | 122 | 108
RPMI 5 mM glucose + 10% dialyzed FBS, 0.19 µM | 110 | 116 | 109
RPMI 5 mM glucose + 10% dialyzed FBS, 0.569 µM | 107 | 103 | 96.2
RPMI 5 mM glucose + 10% dialyzed FBS, 1.71 µM | 106 | 110 | 87.5
RPMI 5 mM glucose + 10% dialyzed FBS, 5.12 µM | 125 | 87.3 | 66.4
RPMI 5 mM glucose + 10% dialyzed FBS, 15.4 µM | 122 | 78.3 | 72.6
RPMI 5 mM glucose + 10% dialyzed FBS, 46.1 µM | 106 | 69.8 | 48.2
